Test system: primary rat mixed cortical cells
Assay: In vitro myelination assay (MBP positive myelin strands, fold myelin pixels above background)
Assay type: cell-based
Settings: Rattus norvegicus, read-out: Fold myelin pixels above background relative to baseline of no added compound; for fold induction at 1 µM: 1.0 μM compound; for fold induction at 10 µM: 10.0 μM compound
Method in brief: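 P1 rat cortical cells (neurons, OPCs, oligodendrocytes, astrocytes, microglia) were cultured 14 days at 37 °C with compound, with half-medium changes containing 1× compound on days 6 and 10. Fixed cells were immunostained for MBP and imaged at 10×. Total MBP myelin pixels per well were expressed as fold above no-compound baseline at 1.0 μM and 10.0 μM.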

`Cc1cc(Nc2ncn(-c3cc(F)cc(F)c3)n2)nc(OCC2CC2)c1` [Compound 980, 6-(cyclopropylmethoxy)-N-[1-(3,5-difluorophenyl)-1,2,4-triazol-3-yl]-4-methyl-pyridin-2-amine] was tested, and the fold induction at 1 µM was 1 to 10 and the fold induction at 10 µM was 1 to 10.
In the case of `Cc1cc(Nc2ncn(-c3cc(F)cc(F)c3)n2)cc(N2CCCC3COCC32)c1` (stereo not shown) [Compound 981, N-[3-(3,4,4a,5,7,7a-hexahydro-2H-furo[3,4-b]pyridin-1-yl)-5-methyl-phenyl]-1-(3,5-difluorophenyl)-1,2,4-triazol-3-amine], the fold induction at 1 µM is reported as 1 to 10 and the fold induction at 10 µM is reported as 10 to 100.
With `[2H]C1([2H])OC([2H])([2H])C([2H])([2H])N(c2cc(C)cc(Nc3ncn(-c4cc(F)cc(F)c4)n3)c2)C1([2H])[2H]` [Compound 982, 1-(3,5-difluorophenyl)-N-[3-methyl-5-(2,2,3,3,5,5,6,6-octadeuteriomorpholin-4-yl)phenyl]-1,2,4-triazol-3-amine] the fold induction at 1 µM was 10 to 100 and the fold induction at 10 µM was ≤ 1.
`Cc1cc(Nc2ncn(-c3cc(F)cc(F)c3)n2)cc(N2CCC(CN3CCOCC3)C2)c1` (stereo not shown) [Compound 983, 1-(3,5-difluorophenyl)-N-[3-methyl-5-[3-(morpholinomethyl)pyrrolidin-1-yl]phenyl]-1,2,4-triazol-3-amine] showed a fold induction at 1 µM of 1 to 10 and a fold induction at 10 µM of 1 to 10.
With `Cc1cc(Nc2ncn(-c3cc(F)cc(F)c3)n2)cc(N2CCC(CN3CCOCC3)CC2)c1` [Compound 984, 1-(3,5-difluorophenyl)-N-[3-methyl-5-[4-(morpholinomethyl)-1-piperidyl]phenyl]-1,2,4-triazol-3-amine] the fold induction at 1 µM was 10 to 100 and the fold induction at 10 µM was ≤ 1.
In the case of `CCC(CNc1cc(C)cc(Nc2ncn(-c3cc(F)cc(F)c3)n2)c1)N1CCOCC1` (stereo not shown) [Compound 985, N3-[1-(3,5-difluorophenyl)-1,2,4-triazol-3-yl]-5-methyl-N1-(2-morpholinobutyl)benzene-1,3-diamine], the fold induction at 1 µM is reported as 1 to 10 and the fold induction at 10 µM is reported as 1 to 10.
For `Cc1cc(Nc2ncn(-c3cc(F)cc(F)c3)n2)cc(N2CC[C@H](N3CCCC3)C2)c1` [Compound 986, 1-(3,5-difluorophenyl)-N-[3-methyl-5-[(3S)-3-pyrrolidin-1-ylpyrrolidin-1-yl]phenyl]-1,2,4-triazol-3-amine], the fold induction at 1 µM was 1 to 10 and the fold induction at 10 µM was ≤ 1.
In the case of `CCN(CC)CCN1CCN(c2cc(C)cc(Nc3ncn(-c4cc(F)cc(F)c4)n3)c2)CC1` [Compound 987, N-[3-[4-[2-(diethylamino)ethyl]piperazin-1-yl]-5-methyl-phenyl]-1-(3,5-difluorophenyl)-1,2,4-triazol-3-amine], the fold induction at 1 µM is reported as 1 to 10 and the fold induction at 10 µM is reported as ≤ 1.
`Cc1cc(Nc2ncn(-c3cc(F)cc(F)c3)n2)cc(N2CCC(N3CCOCC3C)CC2)c1` (stereo not shown) [Compound 988, 1-(3,5-difluorophenyl)-N-[3-methyl-5-[4-(3-methylmorpholin-4-yl)-1-piperidyl]phenyl]-1,2,4-triazol-3-amine] was tested, and the fold induction at 1 µM was 10 to 100 and the fold induction at 10 µM was 1 to 10.
In the case of `Cc1cc(Nc2ncn(-c3cc(F)cc(F)c3)n2)c(F)c(N2CCN(C(CO)CO)CC2)c1` [Compound 989, 2-[4-[3-[[1-(3,5-difluorophenyl)-1,2,4-triazol-3-yl]amino]-2-fluoro-5-methyl-phenyl]piperazin-1-yl]propane-1,3-diol], the fold induction at 1 µM is reported as ≤ 1 and the fold induction at 10 µM is reported as ≤ 1.
In the case of `Cc1cc(Nc2ncn(-c3cc(F)cc(F)c3)n2)cc(N2CCN(CCCO)CC2)c1` [Compound 990, 3-[4-[3-[[1-(3,5-difluorophenyl)-1,2,4-triazol-3-yl]amino]-5-methyl-phenyl]piperazin-1-yl]propan-1-ol], the fold induction at 1 µM is reported as ≤ 1 and the fold induction at 10 µM is reported as ≤ 1.
For `Cc1cc(Nc2ncn(-c3cc(F)cc(F)c3)n2)cc(N2CCN(C(=O)C3CCOCC3)CC2)c1` [Compound 991, [4-[3-[[1-(3,5-difluorophenyl)-1,2,4-triazol-3-yl]amino]-5-methyl-phenyl]piperazin-1-yl]-tetrahydropyran-4-yl-methanone], the fold induction at 1 µM was 10 to 100 and the fold induction at 10 µM was 1 to 10.
With `Cc1cc(Nc2ncn(-c3cc(F)cc(F)c3)n2)cc(NC2CCN(CC(F)F)CC2)c1` [Compound 992, N1-[1-(2,2-difluoroethyl)-4-piperidyl]-N3-[1-(3,5-difluorophenyl)-1,2,4-triazol-3-yl]-5-methyl-benzene-1,3-diamine] the fold induction at 1 µM was 1 to 10 and the fold induction at 10 µM was 1 to 10.
`Cc1cc(NCC(=O)N2CCCC2)cc(Nc2ncn(-c3cc(F)cc(F)c3)n2)c1` [Compound 993, 2-[3-[[1-(3,5-difluorophenyl)-1,2,4-triazol-3-yl]amino]-5-methyl-anilino]-1-pyrrolidin-1-yl-ethanone] was tested, and the fold induction at 1 µM was 1 to 10 and the fold induction at 10 µM was 10 to 100.
`[2H]C1([2H])N(c2cc(C)cc(Nc3ncn(-c4cc(F)cc(F)c4)n3)c2)C([2H])([2H])C([2H])([2H])N(C2CCC2)C1([2H])[2H]` [Compound 994, N-[3-(4-cyclobutyl-2,2,3,3,5,5,6,6-octadeuterio-piperazin-1-yl)-5-methyl-phenyl]-1-(3,5-difluorophenyl)-1,2,4-triazol-3-amine] gave a fold induction at 1 µM of 1 to 10 and a fold induction at 10 µM of 1 to 10.
In the case of `Cc1cc(Nc2ncn(-c3cc(F)cc(F)c3)n2)cc(N2CCN(CC(C)O)CC2)c1` (stereo not shown) [Compound 995, 1-[4-[3-[[1-(3,5-difluorophenyl)-1,2,4-triazol-3-yl]amino]-5-methyl-phenyl]piperazin-1-yl]propan-2-ol], the fold induction at 1 µM is reported as 10 to 100 and the fold induction at 10 µM is reported as ≤ 1.
For `CCN1CC2CC1CN2c1cc(C)cc(Nc2ncn(-c3cc(F)cc(F)c3)n2)c1` (stereo not shown) [Compound 996, 1-(3,5-difluorophenyl)-N-[3-(5-ethyl-2,5-diazabicyclo[2.2.1]heptan-2-yl)-5-methyl-phenyl]-1,2,4-triazol-3-amine], the fold induction at 1 µM was 1 to 10 and the fold induction at 10 µM was ≤ 1.
In the case of `[2H]C1(N2C([2H])([2H])C([2H])([2H])N(c3cc(C)cc(Nc4ncn(-c5cc(F)cc(F)c5)n4)c3)C([2H])([2H])C2([2H])[2H])COC1` [Compound 997, 1-(3,5-difluorophenyl)-N-[3-methyl-5-[2,2,3,3,5,5,6,6-octadeuterio-4-(3-deuteriooxetan-3-yl)piperazin-1-yl]phenyl]-1,2,4-triazol-3-amine], the fold induction at 1 µM is reported as 100 to 1000 and the fold induction at 10 µM is reported as ≤ 1.
In the case of `Cc1cc(Nc2ncn(-c3ccc(F)c(F)c3)n2)c(F)c(N2CCN(C3COC3)CC2)c1` [Compound 998, 1-(3,4-difluorophenyl)-N-[2-fluoro-5-methyl-3-[4-(oxetan-3-yl)piperazin-1-yl]phenyl]-1,2,4-triazol-3-amine], the fold induction at 1 µM is reported as 10 to 100 and the fold induction at 10 µM is reported as 1 to 10.
In the case of `Cc1cc(Nc2ncn(-c3cc(F)cc(F)c3)n2)nc(OC2CCCOC2)c1` (stereo not shown) [Compound 999, N-[1-(3,5-difluorophenyl)-1,2,4-triazol-3-yl]-4-methyl-6-tetrahydropyran-3-yloxy-pyridin-2-amine], the fold induction at 1 µM is reported as 1 to 10 and the fold induction at 10 µM is reported as ≤ 1.
For `COCCCCN1CCN(c2cc(C)cc(Nc3ncn(-c4cc(F)cc(F)c4)n3)c2)CC1` [Compound 1001, 1-(3,5-difluorophenyl)-N-[3-[4-(4-methoxybutyl)piperazin-1-yl]-5-methyl-phenyl]-1,2,4-triazol-3-amine], the fold induction at 1 µM was 10 to 100 and the fold induction at 10 µM was 1 to 10.
With `Cc1cc(NCCN2CC(C)OCC2C)cc(Nc2ncn(-c3cc(F)cc(F)c3)n2)c1` (stereo not shown) [Compound 1003, N1-[1-(3,5-difluorophenyl)-1,2,4-triazol-3-yl]-N3-[2-(2,5-dimethylmorpholin-4-yl)ethyl]-5-methyl-benzene-1,3-diamine] the fold induction at 1 µM was 10 to 100 and the fold induction at 10 µM was ≤ 1.
Compound `CC1=NOC(CNc2cc(C)cc(Nc3ncn(-c4cc(F)cc(F)c4)n3)c2)C1` (stereo not shown) [Compound 1004, N1-[1-(3,5-difluorophenyl)-1,2,4-triazol-3-yl]-5-methyl-N3-[(3-methyl-4,5-dihydroisoxazol-5-yl)methyl]benzene-1,3-diamine] has a fold induction at 1 µM of 1 to 10 and a fold induction at 10 µM of 1 to 10.
With `Cc1cc(Nc2ncn(-c3cc(F)cc(F)c3)n2)cc(N2CCN(CCOC(C)C)CC2)c1` [Compound 1005, 1-(3,5-difluorophenyl)-N-[3-[4-(2-isopropoxyethyl)piperazin-1-yl]-5-methyl-phenyl]-1,2,4-triazol-3-amine] the fold induction at 1 µM was 1 to 10 and the fold induction at 10 µM was ≤ 1.
`COC1CCN(c2cc(C)cc(Nc3ncn(-c4cc(F)cc(F)c4)n3)c2)CC1` [Compound 1006, 1-(3,5-difluorophenyl)-N-[3-(4-methoxy-1-piperidyl)-5-methyl-phenyl]-1,2,4-triazol-3-amine] was tested, and the fold induction at 1 µM was 10 to 100 and the fold induction at 10 µM was 1 to 10.
`Cc1cc(Nc2ncn(-c3cc(F)cc(F)c3)n2)c(F)c(NC2CCCC2N2CCOCC2)c1` (stereo not shown) [Compound 1007, N3-[1-(3,5-difluorophenyl)-1,2,4-triazol-3-yl]-2-fluoro-5-methyl-N1-(2-morpholinocyclopentyl)benzene-1,3-diamine] showed a fold induction at 1 µM of 1 to 10 and a fold induction at 10 µM of 10 to 100.
Compound `Cc1cc(NCCOC2CCC2)cc(Nc2ncn(-c3cc(F)cc(F)c3)n2)c1` [Compound 1008, N3-[2-(cyclobutoxy)ethyl]-N1-[1-(3,5-difluorophenyl)-1,2,4-triazol-3-yl]-5-methyl-benzene-1,3-diamine] has a fold induction at 1 µM of 10 to 100 and a fold induction at 10 µM of 1 to 10.
In the case of `Cc1cc(Nc2ncn(-c3cc(F)cc(F)c3)n2)cc(N2CC(O)C(N3CCCC3)C2)c1` (stereo not shown) [Compound 1010, 1-[3-[[1-(3,5-difluorophenyl)-1,2,4-triazol-3-yl]amino]-5-methyl-phenyl]-4-pyrrolidin-1-yl-pyrrolidin-3-ol], the fold induction at 1 µM is reported as 1 to 10 and the fold induction at 10 µM is reported as ≤ 1.
In the case of `COCCN1CCN(c2cc(C)cc(Nc3ncn(-c4cc(F)cc(F)c4)n3)c2)CC1C` (stereo not shown) [Compound 1011, 1-(3,5-difluorophenyl)-N-[3-[4-(2-methoxyethyl)-3-methyl-piperazin-1-yl]-5-methyl-phenyl]-1,2,4-triazol-3-amine], the fold induction at 1 µM is reported as 10 to 100 and the fold induction at 10 µM is reported as ≤ 1.

From US10766869B2, “Triazoles for the treatment of demyelinating dieases” (Vertex Pharmaceuticals Incorporated, priority 2015, dated 2020)
